# Results published in patent US20240016924A1, “NEW ADJUVANT TO IMPROVE THE INNATE IMMUNITY” (INSTITUT NATIONAL DE LA SANTÉ ET DE LA RECHERCHE MÉDICALE, priority 2020, published 2024).
# Tested on: Monocyte-derived DCs
# Experiment: DC-EC co-culture and DC activation
# Type: cell-based, human
# Procedure: Monocyte-derived DCs (DCs) were generated from primary human monocytes obtained from PBMCs (purity>98%) as described (Sallusto and Lanzavecchia 1994, Magérus-Chatinet, Yu et al. 2007). In brief, human peripheral blood mononuclear cells (PBMC) were separated from healthy donors blood (EFS, Paris, France), and monocytes were purified from PBMC by negative selection according to manufacturer instructions (StemCell Technologies, France). DCs were obtained by incubating monocytes for 7 days in complete medium containing GM-CSF (100 ng/ml) and IL-4 ([…]).
# Three DC culture systems were developed. Monocytes derived DCs (5×10^5 cells) were incubate for 24 h in medium alone and considered as non-mucosal DCs (DCs) or co-cultured with nasal epithelial cell (RPMI-2650 cell line) monolayer in 24-well plate (DC-EC or eduDC systems for 24 hours at 37° C. In turn, DCs were either further cultured with ECs during P1 stimulation (DC-ECs) or separated from EC and transferred into a new plate (eduDCs) for further P1 treatment. Subsequently, P1 (clade B, 125 μM) or medium were added to each of the DCs, DC-ECs or eduDCs cultures for 16 hrs. DCs were collected for surface staining with allophycocyanin (APC)-conjugated anti-CD86, R-phycoerythrin (PE)-conjugated anti-CD83, APC-conjugated anti-TSLPR, PE-conjugated anti-IL-7Rα antibodies (all from Bio-Techne). Specific labeling was quantified by flow cytometry using a Guava EasyCyte flow cytometer and the InCyte software (Merck) described (Duchemin, Khamassi et al. 2018). Culture supernatant were collected and frozen at −80° C. for subsequent cytokine and chemokine analyses.
# In particular, mucosal DCs modulate their functions by interacting with epithelial cells (ECs) including via epithelial secretion of TSLP (Rimoldi, Chieppa et al. 2005, Biton, Levin et al. 2011). Thus, we established a simplified mucosal DC model, by co-culturing DCs and nasal ECs (RPMI-2650 cell line), thereby mimicking the nasal mucosal environment. DCs were first ‘educated’ by a 24 hr co-culture with ECs. Subsequently, these ‘educated’ DCs were either maintained in culture with ECs and referred to as DC-EC, or separated from the epithelium and referred to as eduDC. Alternatively, DCs only cultured with medium represented ‘non-mucosal’ DCs.
sequence,measurement,setting,value
SQNQQEKNEQELLELDKWASLWNWFNITNWLWYIK [P1],expression of maturation markers CD83 and CD86,"'non-mucosal' DCs, P1 125 μM overnight",has no effect
same,IFN-γ secretion,DC models upon P1 stimulation,remains unchanged upon P1-stimulation or slightly decreases in DC-EC
same,expression of TSLP receptor (TSLP-R and IL-7Rα),DCs in all three models,significantly enhanced the expression of TSLP receptor
same,"IL-12, IL-13, CCL2, CCL17, TNF-α, APRIL and BAFF secretion","DCs, DC-EC, eduDC",secreted equally in all three models
same,TSLP secretion,eduDC and DC-EC models,more modest
same,"IL-6, IL-8, IL-10, CCL20, CCL22 and MMP-9 secretion",eduDC and DC-EC models compared with non-mucosal DCs,significant increase
same,expression of co-stimulatory molecules CD83 and CD86,"mucosal DCs (DC-EC or eduDCs), P1 125 μM overnight, versus untreated",significant up-regulation
same,"IL-25, IL-33, IL-4, IL-5 secretion",whatever the model,remain undetectable
